“Also recorded” adds a separate entry of the source.
What was measured:
[1] = tested on: tumors derived from HT1080 cells; assay: Xenograft in nude mice; assay type: in vivo; details: 1 mg/kg BIA, 5 days a week, 25 days
Description: (§1) Mice purchased 20-25 g of BALBc/Nude and conducted experiments after 1 week of preliminary breeding to adapt to the laboratory environment. This experiment was approved by the Animal Experiment Ethics Committee of Chonbuk National University (CBNU 201 5-064, CBNU 2016-56) and was carried out according to standard work instructions, and the conditions in the breeding room were kept constant temperature and relative humidity, a 12-hour contrast cycle, and water and feed were freely consumed. Experimental animals are transplanted subcutaneously with 5×10^6 cells per mouse using HT1080 cell line and MDA-MB-231 cell line, and after 7-10 days, mice forming tumor sizes of 100 mm^3 are randomly divided into control and experimental groups. […] The tumor size was measured with a caliper and calculated using the following formula: […]
In culture, exponentially growing BI-1 (TMBIM6) knockout and WT HT1080 cells were treated with trypsin and quantified through trypan blue staining differentiation, and 3-5×10^6 cells were resuspended in 0.1 ml PBS. […]
After 25-28 days, the mice were euthanized, solid tumors were incised, and tumor volumes were recorded. Tumor size was measured with a caliper. The tumor volume (mm^3) was calculated by the formula [(shortest diameter)2×longest diameter]/2. […]

HT1080 = assay: Cell proliferation/viability with BIA, IC50 after 3 days; assay type: cell-based; details: Homo sapiens, HT-1080, 72 h; HT1080, treatment for 3 days
SARS-CoV2 virus = assay: MTT cell viability of Vero E6 cells infected with SARS-CoV2; assay type: cell-based; details: Vero E6, SARS-CoV2 0.1 MOI, 500 nM, 24 hours after treatment; control DMSO-S 66.52±2.28%; 0.5 µM
Description: Vero E6 cells, monkey kidney cell masters, were dispensed at 1×10^4 cells/well per well in 96 well plates and incubated at 37° C., 5% CO2 incubators for 24 hours. SARS-CoV2 to infect Vero E6 cells was S ARS-CoV 43326 distributed from the National Pathogen Resource Bank, and DMEM (2% FBS, 1% antibiotic-antimycotic) medium was dispensed at 100 μL/well to infect 0.1 MOI. For 1 hour The virus was removed after 1 hour of infection in a 37° C., 5% CO2 incubator.
Next, samples prepared so that BIA or analogue compounds were finally 500 nM were dispensed 100 μL/well, including the culture medium, and then treated in a 37° C., 5% CO2 incubator for 24 hours. In the same way, the group treated with 2 μM, 5 μM, or 10 μM of Remdesivir (Rem) was a positive control.
Check the condition of the cells, add 100 μL/well of 0.5 mg/ml MTT solution, react in a 37° C., 5% CO2 incubator for 4 hours, wash out the media, and DMSO to the cells by 100 μL/well After sufficient dissolution, absorbance was measured at 540 nm with a plate reader to evaluate cell viability.
To confirm the possibility of viral prevention and therapeutic effects of BIA and its analogue compounds, 500 nM treatment of BIA analogue at the same time as viral infection, and then MTT assay whether the viability of cells against viral infection is improved after 24 hours. The results confirmed are shown in the graph of FIG. 82.

MDA-MB-231 = assay: Cell proliferation/viability with BIA, IC50 after 3 days; assay type: cell-based; details: Homo sapiens, 72 h; MDA-MB-231 cells, treatment for 3 days
BI-1 (TMBIM6) = assay: TMBIM6-GCaMP3 fluorescence, calcium released through BI-1; assay type: cell-based; details: HT1080 cells expressing TMBIM6-GCaMP3, BIA 10 μM, over time
[2] = tested on: human breast cancer cells labeled with DiI dye; assay: Zebrafish tumor model; assay type: in vivo; details: 2 uM BIA, third day after transplantation
[3] = tested on: tumors derived from MDA-MB-231 cells; assay: Xenograft in nude mice; assay type: in vivo; details: MDA-MB-231 xenograft, 1 mg/kg BIA, 5 days a week, 25 days
Description: FIG. 67C and FIG. 67D show the volume and weight of tumors derived from MDA-MB-231 cells injected into a nude mouse treated with a vehicle or 1 mg/kg BIA. (n=5 mice for each group). Data were expressed as mean±SD. ***p<0.001, ****p<0.0001, followed by binary ANOVA, followed by Bonferroni's post hoc test (C) or two-tailed unpaired t-test (B).
as §1, with “groups. The control group is injected with saline (including 10% DMSO) and the experimental group is injected with 1 mg/kg (10% DMSO) into the abdomen. The drug is given 5 days a week, and repeated for 4 weeks.” for “groups.”

## Nc1ccccc1C(=O)/C=C/c1cccc([N+](=O)[O-])c1 [BIA, 2E-1-2-Aminophenyl-3-3-nitrophenyl-2-propen-1-one]
[1]
  tumor growth: significantly impaired
HT1080
  IC50: 1700 ± 100 nM
SARS-CoV2 virus
  cell viability: 77.94±5.51%
MDA-MB-231
  IC50: 2600 ± 500 nM
BI-1 (TMBIM6)
  BI-1-GCaMP3 fluorescence intensity: decreasing pattern; also recorded: decreased over time
[2]
  movement of tumor cells away from the primary site: remained at the injection site
[3]
  tumor growth: significantly impaired
